Reference: patent US7396830B2, “Piperazine amidines as antiviral agents” (priority 2005, dated 2008)

System: HIV-1
Assay: Single-round infectious HIV-1 luciferase reporter virus infection of HeLa CD4 cells
Assay type: cell-based
Details: Human immunodeficiency virus 1, HeLa, 72 h, read-out: EC50 Group from Table 1
Experimental: • Virus production—Human embryonic Kidney cell line, 293T, was propagated in Dulbecco's Modified Eagle Medium (Invitrogen, Carlsbad, Calif.) containing 10% fetal Bovine serum (FBS, Sigma, St. Louis, Mo.). • Virus infection—Human epithelial cell line, HeLa, expressing the HIV-1 receptor CD4 was propagated in Dulbecco's Modified Eagle Medium (Invitrogen, Carlsbad, Calif.) containing 10% fetal Bovine serum (FBS, Sigma, St. Louis , Mo.) and supplemented with 0.2 mg/mL Geneticin (Invitrogen, Carlsbad, Calif.). Virus-Single-round infectious reporter virus was produced by co-transfecting human embryonic Kidney 293 cells with an HIV-1 envelope DNA expression vector and a proviral cDNA containing an envelope deletion mutation and the luciferase reporter gene inserted in place of HIV-1 nef sequences (Chen et al, Ref. 41). Transfections were performed using lipofectAMINE PLUS reagent as described by the manufacturer (Invitrogen, Carlsbad, Calif.). Experiment • 1. HeLa CD4 cells were plated in 96 well plates at a cell density of 1×10^4 cells per well in 100 μl Dulbecco's Modified Eagle Medium containing 10% fetal Bovine serum and incubated overnight. • 2. Compound was added in a 2 μl dimethylsulfoxide solution, so that the final assay concentration would be ≦10 μM. • 3. 100 μl of single-round infectious reporter virus in Dulbecco's Modified Eagle Medium was then added to the plated cells and compound at an approximate multiplicity of infection (MOI) of 0.01, resulting in a final volume of 200 μl per well. • 4. Virally-infected cells were incubated at 37 degrees Celsius, in a CO2 incubator, and harvested 72 h after infection. • 5. Viral infection was monitored by measuring luciferase expression from viral DNA in the infected cells using a luciferase reporter gene assay kit, as described by the manufacturer (Roche Molecular Biochemicals, Indianapolis, Ind.). Infected cell supernatants were removed and 50 μl of lysis buffer was added per well. After 15 minutes, 50 μl of freshly-reconstituted luciferase assay reagent was added per well. Luciferase activity was then quantified by measuring luminescence using a Wallac microbeta scintillation counter. • 6. The percent inhibition for each compound was calculated by quantifying the level of luciferase expression in cells infected in the presence of each compound as a percentage of that observed for cells infected in the absence of compound and subtracting such a determined value from 100. • 7. An EC50 provides a method for comparing the antiviral potency of the compounds of this disclosure. The effective concentration for fifty percent inhibition (EC50) was calculated with the Microsoft Excel Xlfit curve fitting software. For each compound, curves were generated from percent inhibition calculated at 10 different concentrations by using a four paramenter logistic model (model 205). Table 1 is the key for the data in Table 2. Results

## N=C(c1ccccc1)N1CCN(C(=O)C(=O)c2c[nH]c3cccc(F)c23)CC1 [AM-01, 1-(4-fluoro-1H-indol-3-yl)-2-(4-(imino(phenyl)methyl)piperazin-1-yl)ethane-1,2-dione]
  EC50: < 500 nM

## N#C/N=C(\c1ccccc1)N1CCN(C(=O)C(=O)c2c[nH]c3cccc(F)c23)CC1 [AM-02]
  EC50: < 500 nM

## COc1ncc(OC)c2c(C(=O)C(=O)N3CCN(/C(=N/C#N)c4ccccc4)CC3)c[nH]c12 [AM-03]
  EC50: < 500 nM

## CN(C)S(=O)(=O)/N=C(\c1ccccc1)N1CCN(C(=O)C(=O)c2c[nH]c3ccccc23)CC1 [AM-04]
  EC50: < 500 nM

## CCN(CC)CC/N=C(\c1ccccc1)N1CCN(C(=O)C(=O)c2c[nH]c3c(Br)ccc(F)c23)CC1 [AM-05]
  EC50: < 500 nM

## O=C(C(=O)N1CCN(/C(=N/CCN2CCOCC2)c2ccccc2)CC1)c1c[nH]c2c(Br)ccc(F)c12 [AM-06]
  EC50: < 500 nM

## COc1ccc(Br)c2[nH]cc(C(=O)C(=O)N3CCN(/C(=N/S(C)(=O)=O)c4ccccc4)CC3)c12 [AM-07]
  EC50: < 500 nM

## O=C(C(=O)N1CCN(/C(=N/c2ccccc2)c2ccccc2)CC1)c1c[nH]c2cccc(F)c12 [AM-08, 1-(4-fluoro-1H-indol-3-yl)-2-(4-(phenyl(phenylimino)methyl)piperazin-1-yl)ethane-1,2-dione]
  EC50: < 500 nM

## CS(=O)(=O)/N=C(\c1ccccc1)N1CCN(C(=O)C(=O)c2c[nH]c3cccc(F)c23)CC1 [AM-09]
  EC50: < 500 nM

## N#C/N=C(\c1ccccc1)N1CCN(C(=O)C(=O)c2c[nH]c3c(-n4ccnn4)ncc(F)c23)CC1 [AM-10, ((4-(2-(4-fluoro-7-(1H-1,2,3-triazol-1-yl)-1H-pyrrolo[2,3-c]pyridin-3-yl)-2-oxoacetyl)piperazin-1-yl)(phenyl)methylene)cyanamide]
  EC50: < 500 nM

## COc1cnc(-n2ccc(-c3ccc(C#N)cc3)n2)c2[nH]cc(C(=O)C(=O)N3CCN(/C(=N/C#N)c4ccccc4)CC3)c12 [AM-11]
  EC50: < 500 nM

## C/N=C(\c1ccccc1)N1CCN(C(=O)C(=O)c2c[nH]c3ccccc23)CC1 [AM-12]
  EC50: > 500 nM

## CCC/N=C(\c1ccccc1)N1CCN(C(=O)C(=O)c2c[nH]c3ccccc23)CC1 [AM-13]
  EC50: > 500 nM

## CC(C)(C)/N=C(\c1ccccc1)N1CCN(C(=O)C(=O)c2c[nH]c3ccccc23)CC1 [AM-14]
  EC50: > 500 nM

## COc1cnc(-n2cnc(C)n2)c2[nH]cc(C(=O)C(=O)N3CCN(/C(=N/C#N)c4ccccc4)CC3)c12 [AM-16]
  EC50: < 500 nM

## N#C/N=C(\c1ccccc1)N1CCN(C(=O)C(=O)c2c[nH]c3c(Br)ccc(F)c23)CC1 [AM-17]
  EC50: < 500 nM

## C/N=C(\c1ccccc1)N1CCN(C(=O)C(=O)c2c[nH]c3cccc(F)c23)CC1 [AM-18]
  EC50: > 500 nM

## O=C(C(=O)N1CCN(/C(=N/CCOCCO)c2ccccc2)CC1)c1c[nH]c2cccc(F)c12 [AM-19]
  EC50: > 500 nM

## CN(C)CCC/N=C(\c1ccccc1)N1CCN(C(=O)C(=O)c2c[nH]c3cccc(F)c23)CC1 [AM-20]
  EC50: > 500 nM

## O=C(C(=O)N1CCN(/C(=N/C2CC2)c2ccccc2)CC1)c1c[nH]c2cccc(F)c12 [AM-21]
  EC50: > 500 nM

## O=C(C(=O)N1CCN(/C(=N/c2cccnc2)c2ccccc2)CC1)c1c[nH]c2cccc(F)c12 [AM-22]
  EC50: > 500 nM

## O=C(C(=O)N1CCN(/C(=N/CCN2CCOCC2)c2ccccc2)CC1)c1c[nH]c2cccc(F)c12 [AM-23]
  EC50: > 500 nM

## COc1cnc(-n2ccnn2)c2[nH]cc(C(=O)C(=O)N3CCN(/C(=N/C#N)c4ccccc4)CC3)c12 [AM-24]
  EC50: < 500 nM

## C[C@@H]1CN(/C(=N/C#N)c2ccccc2)CCN1C(=O)C(=O)c1c[nH]c2c(-n3ccnn3)ncc(F)c12 [AM-25, (((R)-4-(2-(4-fluoro-7-(1H-1,2,3-triazol-1-yl)-1H-pyrrolo[2,3-c]pyridin-3-yl)-2-oxoacetyl)-3-methylpiperazin-1-yl)(phenyl)methylene)cyanamide]
  EC50: < 500 nM

## CN(C)S(=O)(=O)/N=C(\c1ccccc1)N1CCN(C(=O)C(=O)c2c[nH]c3cccc(F)c23)CC1 [AM-26]
  EC50: > 500 nM

## N#C/N=C(\c1ccccc1)N1CCN(C(=O)C(=O)c2c[nH]c3cc(F)cc(F)c23)CC1 [AM-28]
  EC50: < 500 nM

## N#C/N=C(\c1ccccc1)N1CCN(C(=O)C(=O)c2c[nH]c3c(F)ccc(F)c23)CC1 [AM-30]
  EC50: < 500 nM

## C[C@@H]1CN(C(=N)c2ccccc2)CCN1C(=O)C(=O)c1c[nH]c2c(-n3ccnn3)ncc(F)c12 [AM-33]
  EC50: < 500 nM

## COc1cnc(-n2ccnn2)c2[nH]cc(C(=O)C(=O)N3CCN(C(=N)c4ccccc4)CC3)c12 [AM-34]
  EC50: < 500 nM

## CC(C)NC(=O)/N=C(\c1ccccc1)N1CCN(C(=O)C(=O)c2c[nH]c3cccc(F)c23)CC1 [AM-36]
  EC50: > 500 nM

## CC1(C)OB(c2ccc(NC(=O)/N=C(\c3ccccc3)N3CCN(C(=O)C(=O)c4c[nH]c5cccc(F)c45)CC3)cc2)OC1(C)C [AM-50]
  EC50: > 500 nM

## CCc1ncn(-c2ncc(OC)c3c(C(=O)C(=O)N4CCN(/C(=N/C#N)c5ccccc5)CC4)c[nH]c23)n1 [AM-53]
  EC50: < 500 nM

## N=C(c1ccccn1)N1CCN(C(=O)C(=O)c2c[nH]c3c(-n4ccnn4)ncc(F)c23)CC1 [AM-54]
  EC50: < 500 nM

## COc1cnc(-n2cnc(C)n2)c2[nH]cc(C(=O)C(=O)N3CCN(C(=N)c4ccccn4)CC3)c12 [AM-55]
  EC50: < 500 nM

## O=C(C(=O)N1CCN(/C(=N/C2CCC2)c2ccccc2)CC1)c1c[nH]c2c(-n3ccnn3)ncc(F)c12 [AM-56]
  EC50: < 500 nM

## CN(C)CCC/N=C(\c1ccccc1)N1CCN(C(=O)C(=O)c2c[nH]c3c(-n4ccnn4)ncc(F)c23)CC1 [AM-58]
  EC50: < 500 nM

## CC/N=C(\c1ccccc1)N1CCN(C(=O)C(=O)c2c[nH]c3c(-n4ccnn4)ncc(F)c23)CC1 [AM-59]
  EC50: < 500 nM

## O=C(C(=O)N1CCN(/C(=N/CCOCCO)c2ccccc2)CC1)c1c[nH]c2c(-n3ccnn3)ncc(F)c12 [AM-60]
  EC50: < 500 nM

## O=C(C(=O)N1CCN(/C(=N/C2CCCC2)c2ccccc2)CC1)c1c[nH]c2c(-n3ccnn3)ncc(F)c12 [AM-61]
  EC50: < 500 nM

## CCCC/N=C(\c1ccccc1)N1CCN(C(=O)C(=O)c2c[nH]c3c(-n4ccnn4)ncc(F)c23)CC1 [AM-62]
  EC50: < 500 nM

## O=C(C(=O)N1CCN(/C(=N/C2CCCCC2)c2ccccc2)CC1)c1c[nH]c2c(-n3ccnn3)ncc(F)c12 [AM-63]
  EC50: < 500 nM

## CC(C)/N=C(\c1ccccc1)N1CCN(C(=O)C(=O)c2c[nH]c3c(-n4ccnn4)ncc(F)c23)CC1 [AM-64]
  EC50: < 500 nM

## C[C@H]1CN(/C(=N/C#N)c2ccccc2)CCN1C(=O)C(=O)c1c[nH]c2c(-n3ccnn3)ncc(F)c12 [AM-65]
  EC50: < 500 nM

## CC[C@@H]1CN(/C(=N/C#N)c2ccccc2)CCN1C(=O)C(=O)c1c[nH]c2c(-n3ccnn3)ncc(F)c12 [AM-66]
  EC50: < 500 nM

## CN(C)S(=O)(=O)/N=C(\c1ccccc1)N1CCN(C(=O)C(=O)c2c[nH]c3c(-n4ccnn4)ncc(F)c23)CC1 [AM-67]
  EC50: < 500 nM

## CS(=O)(=O)/N=C(\c1ccccc1)N1CCN(C(=O)C(=O)c2c[nH]c3c(-n4ccnn4)ncc(F)c23)CC1 [AM-68]
  EC50: < 500 nM

## C/N=C(\c1ccccc1)N1CCN(C(=O)C(=O)c2c[nH]c3c(-n4ccnn4)ncc(F)c23)CC1 [AM-69]
  EC50: < 500 nM

## C/N=C(\c1ccccc1)N1CCN(C(=O)C(=O)c2c[nH]c3c(-n4cnc(C)n4)ncc(OC)c23)CC1 [AM-70]
  EC50: < 500 nM

## COc1cnc(-c2cnccn2)c2[nH]cc(C(=O)C(=O)N3CCN(C(=N)c4ccccc4)C[C@H]3C)c12 [AM-71]
  EC50: < 500 nM

## COc1cnc(-c2cnccn2)c2[nH]cc(C(=O)C(=O)N3CCN(C(=N)c4ccccc4)C[C@@H]3C)c12 [AM-72]
  EC50: < 500 nM

## N=C(c1ccccc1)N1CCN(C(=O)C(=O)c2c[nH]c3c(Br)ccc(F)c23)CC1 [AM-73]
  EC50: < 500 nM

## C[C@H]1CN(/C(=N/C#N)c2ccccc2)CCN1C(=O)C(=O)c1c[nH]c2c(Br)ccc(F)c12 [AM-76]
  EC50: < 500 nM

## N=C(c1ccccc1)N1CCN(C(=O)C(=O)c2c[nH]c3c(-c4nccs4)ccc(F)c23)CC1 [AM-77]
  EC50: < 500 nM

## C[C@H]1CN(/C(=N/C#N)c2ccccc2)CCN1C(=O)C(=O)c1c[nH]c2c(-c3nccs3)ccc(F)c12 [AM-78]
  EC50: < 500 nM

## C[C@H]1CN(/C(=N/C#N)c2ccccc2)CCN1C(=O)C(=O)c1c[nH]c2c(-c3ccccn3)ccc(F)c12 [AM-79]
  EC50: < 500 nM

## C[C@H]1CN(/C(=N/C#N)c2ccccc2)CCN1C(=O)C(=O)c1c[nH]c2c(-c3cc4ccccc4s3)ccc(F)c12 [AM-80]
  EC50: < 500 nM

## N#C/N=C(\c1ccccn1)N1CCN(C(=O)C(=O)c2c[nH]c3c(-n4ccnn4)ncc(F)c23)CC1 [AM-81]
  EC50: < 500 nM
